This is an account of results in article PMC5283573 (Biochemistry, 2016).

For assay [1], the target named is T1, imidazole glycerol phosphate synthase (IGPS), HisH-HisF heterodimer (Thermotoga maritima, UniProt Q9X0C6+Q9X0C8). Kind of assay: glutaminase assay, coupled glutamate dehydrogenase/APAD. Type of assay: biochemical.
For assay [2], the target named is T1, imidazole glycerol phosphate synthase (IGPS), HisH-HisF heterodimer. Put plainly: isothermal titration calorimetry. It counts as binding.

The molecule `CCC(CNCCO)Nc1nc2c(c(=O)n(C)c(=O)n2C)n1Cc1ccccc1` (centres unmarked) [compound 3, 7-benzyl-8-[(1-{[(2-hydroxyethyl)amino]methyl}propyl)amino]-1,3-dimethyl-2,3,6,7-tetrahydro-1H-2,6-purinedione] came in with a Ki in assay [1] of 900 ± 70 µM. For the same molecule, in assay [2], binding was characterised by a dissociation constant (Kd) of 1.5 ± 0.3 mM.
